Results on 6 compounds are retold here after ChEMBL document CHEMBL1201862, “PubChem BioAssay data set” (2004).

A short description of assay [1]: Counterscreen for IDE inhibitors: Luminescence-based cell-based high throughput dose response assay to identify compounds that are cytotoxic to HEK cells. [Related pubchem assays: 434962 (Primary screen (IDE inhibitors in singlicate)), 449730 (Counterscreen (Cytotoxicity in triplicate)), 435028 (Confirmation (IDE inhibitors in triplicate)) …. In kind it is functional. The settings on record: HEK293. For orientation: The purpose of a counterscreen is to sort out artefacts and off-target activity.

Another assay has as its target T1, Insulin-degrading enzyme (Homo sapiens, UniProt P14735).
T1 sequence (P14735 whole entry): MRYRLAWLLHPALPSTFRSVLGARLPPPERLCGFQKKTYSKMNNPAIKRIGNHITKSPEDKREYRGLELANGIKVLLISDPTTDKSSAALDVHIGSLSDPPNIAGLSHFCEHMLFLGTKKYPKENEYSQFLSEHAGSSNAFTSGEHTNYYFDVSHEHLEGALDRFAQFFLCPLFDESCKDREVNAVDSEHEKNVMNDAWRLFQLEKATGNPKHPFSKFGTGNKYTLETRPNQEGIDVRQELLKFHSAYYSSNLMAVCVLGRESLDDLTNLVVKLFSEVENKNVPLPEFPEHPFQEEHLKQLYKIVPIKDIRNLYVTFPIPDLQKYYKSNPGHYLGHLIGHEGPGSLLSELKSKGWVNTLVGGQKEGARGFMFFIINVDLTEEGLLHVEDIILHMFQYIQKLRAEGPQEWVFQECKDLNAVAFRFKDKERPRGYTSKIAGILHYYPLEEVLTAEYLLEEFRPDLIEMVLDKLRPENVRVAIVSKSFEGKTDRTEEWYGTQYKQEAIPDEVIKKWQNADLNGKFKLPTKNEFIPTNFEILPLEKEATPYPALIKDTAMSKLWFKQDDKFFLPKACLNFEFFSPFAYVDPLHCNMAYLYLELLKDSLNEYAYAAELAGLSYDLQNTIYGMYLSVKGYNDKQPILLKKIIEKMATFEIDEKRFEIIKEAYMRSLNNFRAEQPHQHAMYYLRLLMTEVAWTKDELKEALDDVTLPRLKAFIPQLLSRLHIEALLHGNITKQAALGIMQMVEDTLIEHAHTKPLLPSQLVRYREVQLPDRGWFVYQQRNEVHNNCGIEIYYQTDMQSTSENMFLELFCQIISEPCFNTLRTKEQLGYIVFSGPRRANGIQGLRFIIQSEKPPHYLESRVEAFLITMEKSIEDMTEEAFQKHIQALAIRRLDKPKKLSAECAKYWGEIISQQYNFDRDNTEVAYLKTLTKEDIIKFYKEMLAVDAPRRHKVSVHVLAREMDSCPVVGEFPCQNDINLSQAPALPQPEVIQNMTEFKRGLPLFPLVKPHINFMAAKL
The assay can be described thus: Dose Response: Fluorescence polarization-based cell-based high throughput dose response assay for inhibitors of insulin-degrading enzyme (IDE). [Related pubchem assays: 434962 (Primary screen (IDE inhibitors in singlicate)), 449730 (Counterscreen (Cytotoxicity in triplicate)), 435028 (Confirmation (IDE inhibitors in triplicate)), 434984 (Summary …. In kind it is functional. For orientation: Fluorescence polarisation rises when a labelled molecule tumbles more slowly, as on binding a larger partner.

Assay [2] concerns the target T2, Short transient receptor potential channel 4 (Mus musculus, UniProt Q9QUQ5).
T2 sequence (Q9QUQ5 whole entry): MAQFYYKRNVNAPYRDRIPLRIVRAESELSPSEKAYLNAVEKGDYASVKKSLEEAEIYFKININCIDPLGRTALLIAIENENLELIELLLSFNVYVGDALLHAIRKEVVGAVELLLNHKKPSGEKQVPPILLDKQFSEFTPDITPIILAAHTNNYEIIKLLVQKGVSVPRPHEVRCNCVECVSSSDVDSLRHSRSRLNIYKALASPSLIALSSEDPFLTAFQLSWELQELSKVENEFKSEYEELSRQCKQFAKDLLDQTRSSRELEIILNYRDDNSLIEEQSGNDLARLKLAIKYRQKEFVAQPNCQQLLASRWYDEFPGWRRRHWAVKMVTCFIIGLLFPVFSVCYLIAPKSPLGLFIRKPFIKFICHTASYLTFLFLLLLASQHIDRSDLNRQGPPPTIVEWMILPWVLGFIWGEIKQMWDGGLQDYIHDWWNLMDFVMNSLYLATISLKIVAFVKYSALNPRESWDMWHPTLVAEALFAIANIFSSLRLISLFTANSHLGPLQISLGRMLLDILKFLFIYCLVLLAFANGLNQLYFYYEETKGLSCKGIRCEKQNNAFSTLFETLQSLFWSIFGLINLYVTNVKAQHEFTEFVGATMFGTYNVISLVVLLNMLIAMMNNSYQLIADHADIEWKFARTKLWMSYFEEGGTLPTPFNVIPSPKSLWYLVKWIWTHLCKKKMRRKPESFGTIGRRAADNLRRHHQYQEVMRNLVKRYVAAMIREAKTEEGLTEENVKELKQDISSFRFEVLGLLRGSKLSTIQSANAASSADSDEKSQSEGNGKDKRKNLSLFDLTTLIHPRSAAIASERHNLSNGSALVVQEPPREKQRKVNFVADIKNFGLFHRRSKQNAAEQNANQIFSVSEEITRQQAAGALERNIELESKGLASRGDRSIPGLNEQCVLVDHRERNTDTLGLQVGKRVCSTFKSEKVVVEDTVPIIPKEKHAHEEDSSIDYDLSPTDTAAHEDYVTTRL
As to the kind of experiment: mouse TRPC4 channel inhibitors, dose response, cell-based, HEK293 TRPC4/mu-opioid, Fluo-4 calcium (AID 434942).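 Also: potency of inhibitors blocking the TRPC4 calcium response.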 In kind it is functional.

Assay [3] can be described thus: Shn3 3'UTR reporter inhibitors, dose response, cell-based, Clone20 osteoblasts, firefly luciferase, cherry-picked (AID 624132).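 Also: firefly luciferase luminescence from reporter carrying the Shn3 3'UTR in osteoblasts.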 In kind it is functional.
For assay [4], the system named is Vero. As to the kind of experiment: cells. Type of assay: functional. The settings on record: Chlorocebus sabaeus.
Assay [5] can be described thus: Luminescence-based counterscreen assay for KLF5 inhibitors: dose response cell-based high throughput screening assay to identify cytotoxic compounds using the IEC-6 intestinal epithelial cell line. [Related pubchem assays: 1700 (Primary screen.), 1834 (Confirmation screen.), 1858 (Summary AID.), 1905 (Counterscreen.)]. In kind it is functional.
Assay [6] deals with T3, Heat shock factor protein 1 (Mus musculus, UniProt P38532).
T3 sequence (P38532 whole entry): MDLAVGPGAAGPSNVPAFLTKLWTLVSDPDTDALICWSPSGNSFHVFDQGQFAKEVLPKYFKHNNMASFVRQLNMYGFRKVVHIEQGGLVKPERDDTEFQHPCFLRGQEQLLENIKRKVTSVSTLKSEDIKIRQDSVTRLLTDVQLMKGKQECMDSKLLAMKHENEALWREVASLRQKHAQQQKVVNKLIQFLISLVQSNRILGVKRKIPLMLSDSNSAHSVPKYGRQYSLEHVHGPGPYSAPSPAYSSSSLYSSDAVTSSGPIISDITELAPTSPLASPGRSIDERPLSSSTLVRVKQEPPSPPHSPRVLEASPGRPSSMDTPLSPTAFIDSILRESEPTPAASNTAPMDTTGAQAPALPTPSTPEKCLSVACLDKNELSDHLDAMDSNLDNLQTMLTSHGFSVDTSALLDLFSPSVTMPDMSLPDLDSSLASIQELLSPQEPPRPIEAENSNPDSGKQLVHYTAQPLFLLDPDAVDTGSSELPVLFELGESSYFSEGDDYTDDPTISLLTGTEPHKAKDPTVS
As to the kind of experiment: inhibition of MG132-induced HSE-luciferase signal, confirmation, cell-based, NIH3T3, luminescence, dose retest (AID 2382).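 Also: NIH3T3 fibroblasts with HSF1-driven luciferase reporter stressed by proteasome inhibitor MG132; luminescence from HSF1-driven luciferase expression after 8 hours of MG132 stress.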 Type of assay: functional.

Assay [7] can be described thus: inhibitors of firefly luciferase expression or activity, dose response, H4 neuroglioma cells, luminescence (AID 1990). Type of assay: functional, cell-based.
The nature of assay [8]: luciferase reporter signal reduction – luminescence, H4-C neuroglioblastoma cells, dose response (AID 2458).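 Also: H4 neuroglioblastoma cells stably carrying a luciferase reporter gene fusion.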 Type of assay: functional, cell-based.
Assay [9] concerns the target Luciferin 4-monooxygenase (Photinus pyralis, UniProt P08659). As to the kind of experiment: firefly luciferase enzyme inhibitors, dose response, biochemical, luminescence (AID 1891).
The subject of assay [10] is Vero. The assay can be described thus: cells. In kind it is functional, cell-based. The following applies: Chlorocebus sabaeus.
The nature of assay [11]: inhibitors of SNCA 5'UTR-driven translation, confirmation, luminescence, H4 neuroglioblastoma cells, dose confirmation (AID 2454).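 Also: H4 neuroglioblastoma cells carrying an alpha-synuclein 5'UTR luciferase reporter; potency for inhibition of the luciferase signal.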 In kind it is functional, cell-based.
Assay [12] in a line: HepG2 cell cytotoxicity, dose response, cytotoxicity control for Shn3 inhibitor project, CellTiter-Glo, cherry-picked (AID 624134). In kind it is functional, cell-based.
Assay [13] can be described thus: inhibitors of SNCA 5'UTR-driven reporter translation, confirmation, H4 neuroglioma cells, luminescence (AID 1988). In kind it is functional, cell-based.
Assay [14] in a line: Luminescence Cell-Based Dose Confirmation HTS to Identify Inhibitors of Platelet Dense Granule Release. [Related pubchem assays: 1663 (Primary HTS), 1678 (Summary of Project)]. Type of assay: functional.
A further assay is described as follows: cells. Type of assay: functional, cell-based.
Assay [15] in a line: Luminescence Cell-Based Dose Response HTS to Identify Inhibitors of 5'UTR Stem-Loop Driven Prion Protein mRNA Translation in H4 Neuroglioblastoma Cells. [Related pubchem assays: 1827 (Project Summary), 1813 (Primary HTS)]. In kind it is functional.
Assay [16] has as its target T4, C-C chemokine receptor type 6 (Homo sapiens, UniProt P51684).
T4 sequence (P51684 whole entry): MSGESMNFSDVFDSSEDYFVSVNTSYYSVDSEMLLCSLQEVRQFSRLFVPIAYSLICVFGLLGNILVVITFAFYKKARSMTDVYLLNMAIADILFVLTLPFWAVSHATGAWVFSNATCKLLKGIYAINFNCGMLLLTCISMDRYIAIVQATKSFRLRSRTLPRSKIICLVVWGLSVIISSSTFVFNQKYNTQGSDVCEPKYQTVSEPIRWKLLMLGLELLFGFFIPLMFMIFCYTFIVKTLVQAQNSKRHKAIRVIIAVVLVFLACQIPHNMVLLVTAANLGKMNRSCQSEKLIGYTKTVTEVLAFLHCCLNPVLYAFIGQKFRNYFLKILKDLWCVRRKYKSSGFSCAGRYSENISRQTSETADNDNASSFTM
As to the kind of experiment: CCR6 receptor antagonists, dose response, cell-based, luminescent beta-arrestin readout (AID 504728). In kind it is functional.

A further assay has as its target Beta-galactosidase (Escherichia coli, UniProt Q8VNN2). The assay can be described thus: beta-galactosidase enzyme inhibitors and activators, dose response, artefact control for CCR6 antagonist project, biochemical, E. coli enzyme, set 3 (AID 504712). In kind it is functional.
For assay [17], the target named is Lysosomal acid glucosylceramidase (Homo sapiens, UniProt P04062). The assay can be described thus: Dose response cell-based high throughput screening assay to identify enhancers of beta-glucosidase activity. [Related pubchem assays: 784 ]. Type of assay: functional.
Sequence of Lysosomal acid glucosylceramidase (P04062 whole entry): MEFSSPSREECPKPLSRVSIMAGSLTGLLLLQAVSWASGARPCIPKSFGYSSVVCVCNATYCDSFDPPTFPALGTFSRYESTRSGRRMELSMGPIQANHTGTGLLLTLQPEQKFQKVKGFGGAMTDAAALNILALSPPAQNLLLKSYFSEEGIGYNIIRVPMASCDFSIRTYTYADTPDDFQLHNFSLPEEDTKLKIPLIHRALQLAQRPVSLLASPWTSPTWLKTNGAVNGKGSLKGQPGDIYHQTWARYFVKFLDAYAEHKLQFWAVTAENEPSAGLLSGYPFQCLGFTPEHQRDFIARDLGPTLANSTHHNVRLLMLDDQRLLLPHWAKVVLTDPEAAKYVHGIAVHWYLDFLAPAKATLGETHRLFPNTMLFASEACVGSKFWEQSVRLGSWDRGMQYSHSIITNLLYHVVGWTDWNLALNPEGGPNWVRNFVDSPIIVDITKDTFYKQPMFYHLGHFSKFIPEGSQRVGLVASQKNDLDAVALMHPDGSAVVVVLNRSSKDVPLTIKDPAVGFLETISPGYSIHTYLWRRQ
A further assay deals with T5, Bcl-2-like protein 10 (Homo sapiens, UniProt Q9HD36).
T5 sequence (Q9HD36 whole entry): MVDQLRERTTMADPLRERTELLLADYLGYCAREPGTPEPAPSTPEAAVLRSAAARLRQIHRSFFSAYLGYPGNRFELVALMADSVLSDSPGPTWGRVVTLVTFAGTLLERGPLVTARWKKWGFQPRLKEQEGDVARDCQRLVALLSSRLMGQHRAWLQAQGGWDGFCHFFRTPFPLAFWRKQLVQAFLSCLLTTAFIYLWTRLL
The assay can be described thus: Biochemical TR3 FP assay of Bcl-B inhibitor potency, EC50 (AID 1243). In kind it is functional.

Molecules are shown by their SMILES. Active and inactive are the calls of the source.

Sequence of Beta-galactosidase (Q8VNN2 whole entry): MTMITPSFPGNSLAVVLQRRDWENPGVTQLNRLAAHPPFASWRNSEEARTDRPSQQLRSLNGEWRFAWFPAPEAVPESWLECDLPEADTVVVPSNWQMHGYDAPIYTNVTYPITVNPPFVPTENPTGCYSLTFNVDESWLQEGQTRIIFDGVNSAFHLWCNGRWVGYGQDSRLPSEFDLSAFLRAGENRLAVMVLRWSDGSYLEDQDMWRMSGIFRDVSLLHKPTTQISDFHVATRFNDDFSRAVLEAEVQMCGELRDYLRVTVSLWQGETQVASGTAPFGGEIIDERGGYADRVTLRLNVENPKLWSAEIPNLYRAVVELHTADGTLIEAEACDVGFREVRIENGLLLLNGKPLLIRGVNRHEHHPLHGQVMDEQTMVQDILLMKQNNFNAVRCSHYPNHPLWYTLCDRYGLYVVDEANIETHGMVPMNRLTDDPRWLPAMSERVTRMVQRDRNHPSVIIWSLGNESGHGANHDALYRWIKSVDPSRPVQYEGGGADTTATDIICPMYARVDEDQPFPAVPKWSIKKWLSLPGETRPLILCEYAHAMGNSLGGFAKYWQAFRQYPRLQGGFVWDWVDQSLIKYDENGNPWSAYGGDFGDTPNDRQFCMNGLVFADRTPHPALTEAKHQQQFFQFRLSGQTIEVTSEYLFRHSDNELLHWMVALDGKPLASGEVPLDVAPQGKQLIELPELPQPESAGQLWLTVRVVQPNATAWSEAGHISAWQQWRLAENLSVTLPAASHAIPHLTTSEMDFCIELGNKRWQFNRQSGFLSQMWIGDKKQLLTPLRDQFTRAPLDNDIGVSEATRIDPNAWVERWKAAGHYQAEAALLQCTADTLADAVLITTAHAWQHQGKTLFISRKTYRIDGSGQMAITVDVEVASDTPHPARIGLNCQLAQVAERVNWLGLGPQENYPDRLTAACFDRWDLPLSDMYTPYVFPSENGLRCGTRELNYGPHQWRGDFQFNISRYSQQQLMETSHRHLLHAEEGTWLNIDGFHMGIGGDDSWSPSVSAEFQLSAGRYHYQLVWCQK
Sequence of Luciferin 4-monooxygenase (P08659 whole entry): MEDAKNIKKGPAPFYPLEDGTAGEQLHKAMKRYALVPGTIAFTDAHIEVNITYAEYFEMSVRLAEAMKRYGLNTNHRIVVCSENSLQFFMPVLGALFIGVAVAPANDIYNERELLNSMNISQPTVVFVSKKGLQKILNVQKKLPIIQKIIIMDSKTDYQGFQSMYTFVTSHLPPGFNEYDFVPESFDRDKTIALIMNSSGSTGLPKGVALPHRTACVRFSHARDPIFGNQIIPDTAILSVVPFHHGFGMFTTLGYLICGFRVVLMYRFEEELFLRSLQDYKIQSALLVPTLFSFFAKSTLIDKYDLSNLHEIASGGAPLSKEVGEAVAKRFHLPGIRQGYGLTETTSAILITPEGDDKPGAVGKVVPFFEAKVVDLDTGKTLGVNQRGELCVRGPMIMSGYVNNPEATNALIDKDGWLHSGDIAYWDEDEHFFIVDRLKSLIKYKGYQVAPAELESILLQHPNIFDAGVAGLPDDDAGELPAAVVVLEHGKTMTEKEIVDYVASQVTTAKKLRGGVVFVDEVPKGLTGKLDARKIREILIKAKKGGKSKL

`Cc1cccc(-c2nnc(SCc3nc4ccccc4[nH]3)n2Cc2ccco2)c1`: the IC50 (commonly the concentration that gives 50% inhibition) was 22.5 µM (not active) in assay [1] and 5.67 µM (active) on Insulin-degrading enzyme. In addition, the EC50 (in general, the concentration needed to bring the measured effect to its halfway point) in [2] is 1.19 µM (active).
For `CN1CCN(c2ccc(-c3ccc4ccccc4n3)cc2)CC1`, the AC50 (commonly the concentration giving half of the maximal activity seen) in assay [3] was 2.73 µM (active); in [12] it was 22.6 µM (active). Also, in the assay on Vero [4], the CC50 (in general, the concentration at which the toxic effect on the cells reaches its halfway point) was > 25 µM (active). Besides, the values for the IC50 (in [5]; in the assay on Vero [10]) were 26.6 µM (not active) and > 25 µM (active), respectively. Also, the EC50 in [6] was < 0.16 µM (active); in [7], < 0.195 µM (active); in assay [8], 0.134 µM (active); in [9], 0.953 µM (active); in [11], 0.039 µM (active); in assay [13], < 0.1 µM (active). The EC50 in assay [14] was 1.66 µM (active); in the assay “cells”, 0.123 µM (active); in [15], < 0.1 µM (active).
With `COc1ccc(N2C(=O)/C(=C\NNc3nc(C)cc(C)n3)c3ccccc3C2=O)cc1OC`, the values for the EC50 in [7], in [13] and in assay [15] were 11.8 µM (active), 9.51 µM (active) and 11.8 µM (active), respectively. The IC50 in [16] was 0.594 µM (active); at Beta-galactosidase it was > 66.6 µM (inactive).
Regarding `Cc1cc2ccccc2c(=O)n1CC(=O)NCC(=O)N1CCN(c2ccccc2)CC1`, in assay [17], the EC50 is reported as > 10 µM (not active).
For the compound `CN1CCN(c2ccccc2NC(=O)c2ccc(-c3cccc(Cl)c3)o2)CC1`, the IC50 (in assay [16]; at Beta-galactosidase) was > 66.6 µM (inactive) throughout.
Regarding `O=C(O)C1Nc2ccc3ccccc3c2C2C=CCC12` (stereo unspecified), at Bcl-2-like protein 10, the EC50 is 7.15 µM (active).
